{"source": "patent US9371337B2", "about": "“β-lactamase inhibitors” (The Regents of the University of California, priority 2011, dated 2016)", "key": {"[1]": {"system": "C. freundii overproducing chromosomally-mediated class C β-lactamase", "assay": "MIC of third-generation cephalosporins alone and with compounds 4 or 9 (Table 3)", "assay_type": "cell-based, Citrobacter freundii", "details": "antibiotic alone", "description": "(§1) Antimicrobial activity was investigated quantitatively to determine the minimum inhibitory concentrations (MICs) of the β-lactam/inhibitor combination necessary to inhibit the bacterial growth (Table 3). The MICs of β-lactams alone against the strains corresponded to a high level of resistance according to Clinical and Laboratory Standards Institute (CLSI) standards. (Clinical and Laboratory Standards Institute, Performance standards for antimicrobial susceptibility testing, 20th Informational Supplement, M100-S20 2010) The compounds had no measurable antibiotic activity when used alone.\n(§2) Susceptibility testing was performed and interpreted following the guidelines of CLSI. (Clinical and Laboratory Standards Institute, Performance standards for antimicrobial susceptibility testing, 20th Informational Supplement, M100-S20 2010) The compounds were dissolved in 50% DMSO, and dilutions were performed using Muller-Hinton medium. An adequate final concentration was obtained to determine the minimum inhibitory concentrations (MICs). The concentration of DMSO was maintained below 5%. The inhibitors were tested for synergy with the third-generation β-lactams ceftazidime and cefotaxime against several clinical bacteria. […] Each value reported reflects the average of three independent experiments. […] A Klebsiella pneumoniae isolate produced the inducible plasmid-mediated class C enzyme DHA-1. The Friedman's test and the Wilcoxon signed rank test were used to compare MIC values. Statistical significance was established at p<0.05."}, "[2]": {"system": "P. aeruginosa overproducing chromosomally-mediated class C β-lactamase", "assay": "MIC of third-generation cephalosporins alone and with compounds 4 or 9 (Table 3)", "assay_type": "cell-based, Pseudomonas aeruginosa", "details": "antibiotic alone", "description": "as §1, §2"}, "[3]": {"system": "K. pneumoniae producing the plasmid-mediated class C β-lactamase DHA-1", "assay": "MIC of third-generation cephalosporins alone and with compounds 4 or 9 (Table 3)", "assay_type": "cell-based, Klebsiella pneumoniae", "details": "antibiotic alone", "description": "as §1, §2"}, "[4]": {"system": "E. cloacae 135, AmpC-overproducing", "assay": "MIC of third-generation cephalosporins alone and with compounds (Table 6)", "assay_type": "cell-based, Enterobacter cloacae", "details": "antibiotic alone", "protocol": "(§3) The anti-resistance activity of inhibitors was investigated by the determination of the minimum inhibitory concentrations (MICs) of the β-lactam/inhibitor combination necessary to inhibit the growth of clinically-isolated bacteria resistant to third-generation cephalosporins via expression of class A or class C β-lactamases (Table 6).\n(§4) Susceptibility testing was performed and interpreted following the guidelines of CLSI. (Clinical and Laboratory Standards Institute, Performance standards for antimicrobial susceptibility testing, 20th Informational Supplement, M100-S20 2010) The compounds were dissolved in 50% DMSO, and dilutions were performed using Muller-Hinton medium. An adequate final concentration was obtained to determine the minimum inhibitory concentrations (MICs). The concentration of DMSO was maintained below 5%. The inhibitors were tested for synergy with the third-generation β-lactams ceftazidime and cefotaxime against several clinical bacteria. The ratio of β-lactams to inhibitors was 1:4. Each value reported reflects the average of three independent experiments. […] The Friedman's test and the Wilcoxon signed rank test were used to compare MIC values. Statistical significance was established at p<0.05.\n(§5) Table 6. MICs (μg/ml) of third-generation cephalosporins alone and in association with the compounds (ratio 1/4) for clinical bacteria. CTX, cefotaxime and CAZ, ceftazidime. ^1, AmpC-overproducing bacteria; ^2, CTX-M-14-producing E. coli; ^3, KPC-2-producing K. pneumoniae; ^4, OXA-48-producing K. pneumoniae; ^5, NDM-1-producing C. freundii."}, "[5]": {"system": "E. cloacae, AmpC-overproducing", "assay": "MIC of third-generation cephalosporins alone and with compounds (Table 6)", "assay_type": "cell-based, Enterobacter cloacae", "details": "antibiotic alone", "protocol": "as §3, §4, §5"}, "[6]": {"system": "K. pneumoniae, AmpC-overproducing", "assay": "MIC of third-generation cephalosporins alone and with compounds (Table 6)", "assay_type": "cell-based, Klebsiella pneumoniae", "details": "antibiotic alone", "protocol": "as §3, §4, §5"}, "[7]": {"system": "OXA-48-producing K. pneumoniae", "assay": "MIC of third-generation cephalosporins alone and with compounds (Table 6)", "assay_type": "cell-based, Klebsiella pneumoniae", "details": "antibiotic alone", "protocol": "as §3, §4, §5"}, "[8]": {"system": "CTX-M-14-producing E. coli", "assay": "MIC of third-generation cephalosporins alone and with compounds (Table 6)", "assay_type": "cell-based, Escherichia coli", "details": "antibiotic alone", "protocol": "as §3, §4, §5"}, "[9]": {"system": "E. coli 142, AmpC-overproducing", "assay": "MIC of third-generation cephalosporins alone and with compounds (Table 6)", "assay_type": "cell-based, Escherichia coli", "details": "antibiotic alone", "protocol": "as §3, §4, §5"}, "[10]": {"system": "E. coli 144, AmpC-overproducing", "assay": "MIC of third-generation cephalosporins alone and with compounds (Table 6)", "assay_type": "cell-based, Escherichia coli", "details": "antibiotic alone", "protocol": "as §3, §4, §5"}, "[11]": {"system": "E. coli 145, AmpC-overproducing", "assay": "MIC of third-generation cephalosporins alone and with compounds (Table 6)", "assay_type": "cell-based, Escherichia coli", "details": "antibiotic alone", "protocol": "as §3, §4, §5"}, "[12]": {"system": "E. coli 146, AmpC-overproducing", "assay": "MIC of third-generation cephalosporins alone and with compounds (Table 6)", "assay_type": "cell-based, Escherichia coli", "details": "antibiotic alone", "protocol": "as §3, §4, §5"}, "[13]": {"system": "E. coli R1, AmpC-overproducing", "assay": "MIC of third-generation cephalosporins alone and with compounds (Table 6)", "assay_type": "cell-based, Escherichia coli", "details": "antibiotic alone", "protocol": "as §3, §4, §5"}, "[14]": {"system": "E. coli, AmpC-overproducing", "assay": "MIC of third-generation cephalosporins alone and with compounds (Table 6)", "assay_type": "cell-based, Escherichia coli", "details": "antibiotic alone", "protocol": "as §3, §4, §5"}, "[15]": {"system": "hospital-derived strain of E. coli that overproduces AmpC", "assay": "MIC for the strain used in the mouse model", "assay_type": "cell-based", "details": "Escherichia coli"}}}
{"smiles": "CO/N=C(\\C(=O)N[C@@H]1C(=O)N2C(C(=O)O)=C(COC(C)=O)CS[C@H]12)c1csc(N)n1", "note": "[Cefotaxime]", "values": [{"measurement": "MIC, cephalosporin alone", "setting": "[1]", "result": 16, "unit": "µg/mL"}, {"measurement": "MIC, cephalosporin alone", "setting": "[2]", "result": ">128", "unit": "µg/mL"}, {"measurement": "MIC, cephalosporin alone", "setting": "[3]", "result": 8, "unit": "µg/mL"}, {"measurement": "MIC, cephalosporin alone", "setting": "[4]", "result": 128, "unit": "µg/mL"}, {"measurement": "MIC, cephalosporin alone", "setting": "[5]", "result": 64, "unit": "µg/mL"}, {"measurement": "MIC, cephalosporin alone", "setting": "[6]", "result": 8, "unit": "µg/mL"}, {"measurement": "MIC, cephalosporin alone", "setting": "[7]", "result": 256, "unit": "µg/mL"}, {"measurement": "MIC, cephalosporin alone", "setting": "[8]", "result": 256, "unit": "µg/mL"}, {"measurement": "MIC, cephalosporin alone", "setting": "[9]", "result": 4, "unit": "µg/mL"}, {"measurement": "MIC, cephalosporin alone", "setting": "[10]", "result": 16, "unit": "µg/mL"}, {"measurement": "MIC, cephalosporin alone", "setting": "[11]", "result": 16, "unit": "µg/mL"}, {"measurement": "MIC, cephalosporin alone", "setting": "[12]", "result": 8, "unit": "µg/mL"}, {"measurement": "MIC, cephalosporin alone", "setting": "[13]", "result": 4, "unit": "µg/mL"}, {"measurement": "MIC, cephalosporin alone", "setting": "[14]", "result": 8, "unit": "µg/mL"}, {"measurement": "MIC", "setting": "[15]", "result": 32, "unit": "µg/mL"}]}
